Laboratory results reported in EP0465091B1, “Use of 3-oxygermylpropionic acid to treat cold syndrome” (SANWA KAGAKU KENKYUSHO CO., LTD., priority 1990, dated 1992).

Key:
[1] = see JP-A-57-53800 and US-A-4309412; cited from earlier work
rats = assay: Antipyretic activity in dry yeast-induced fever (rectal temperature); type: in vivo; conditions: oral; for Changes in mean temperature, Time 1 hr: rectal temperature 1 hr from dosing; for Changes in mean temperature, Time 2 hr: rectal temperature 2 hr from dosing; for Changes in mean temperature, Time 4 hr: rectal temperature 4 hr from dosing; for Changes in mean temperature, Time 8 hr: rectal temperature 8 hr from dosing; for Changes in mean temperature, Time 0 hr: rectal temperature at 0 hr (18 hours after yeast, at dosing)
Procedure: A 20 % suspension of dry yeast was subcutaneously injected into a Wister line of (masculine) rats (weights: 170-200 g) at a dose of 1 ml/100 g to bring their rectal temperatures up to higher than 39°C(39.13 0.02 ) after the lapse of 18 hours. The drugs to be tested were orally administrated to these rats, six for each group, to measure their rectal temperatures at 1, 2, 4 and 8 hours from dosing. The drugs used were: • (1) 75 mg/Kg (50 mg/Kg calculated as 3-OGP) of the primary composition according to Preparation Example; • (2) 1 mg/Kg of indomethacin (IND); • (3) 5 mg/Kg of indomethacin (IND); • (4) 75 mg/Kg (50 mg/Kg calculated as 3-OGP) of the primary composition according to Preparation Example 1 + 1 mg/Kg of indomethacin - administer at once; and • (5) No drug - control.

[2] = primary composition 75mg/Kg, IND 1mg/Kg, or both

Compound	stability in the presence of water [1]	Changes in mean temperature, Time 1 hr (rats; IND 5mg/Kg)	Changes in mean temperature, Time 1 hr (rats; [2])	Changes in mean temperature, Time 2 hr (rats; IND 5mg/Kg)	Changes in mean temperature, Time 2 hr (rats; [2])	Changes in mean temperature, Time 4 hr (rats; IND 5mg/Kg)	Changes in mean temperature, Time 4 hr (rats; [2])	Changes in mean temperature, Time 8 hr (rats; IND 5mg/Kg)	Changes in mean temperature, Time 8 hr (rats; [2])	Changes in mean temperature, Time 0 hr (rats; IND 5mg/Kg)	Changes in mean temperature, Time 0 hr (rats; [2])
3-oxygermylpropionic acid [3-OGP]	so unstable in the presence of water that its pharmacological activity decreases drastically										
COc1ccc2c(c1)c(CC(=O)O)c(C)n2C(=O)c1ccc(Cl)cc1 [IND, Indomethacin]		38.35 °C	38.81 °C	37.67 °C	38.65 °C	37.75 °C	38.44 °C	37.94 °C	38.30 °C	39.13 °C	39.13 °C
